Data as given in US5736523A, “Antineoplastic heteronapthoquinones” (Biochem Pharma Inc., priority 1995, dated 1998).
Structures can show the parent of a compound that is named as a salt.

Each compound was assayed on SKVLB (Ovarian; multidrug resistant) (assay: In vitro cytotoxicity, microculture tetrazolium (MTT) assay, SKVLB). Details: Homo sapiens.
Type: cell-based, human
Description: In Vitro Cytotoxicity--Microculture Tetrazolium Assay
The microculture tetrazolium assay was used to test in vitro cytotoxicity. This assay is described in Plumb, J. A. et al., 1989 Cancer Research 49, 4435-4440, which is herein incorporated by reference. The cytotoxicity of compounds towards tumor cells is measured in vitro using the assay. This assay method is based upon the ability of live, but not dead cells to reduce the yellow water soluble dye 3-(4;5-dimethylthiazol-2-yl)-2,5-diphenyltetrazolium bromide (MTT) to its water insoluble purple formazan product.
Human Tumor Cell lines, used were:
SKVLB (Ovarian; multidrug resistant)--Dr. V. Ling, Ontario
The cells were maintained in exponential growth in culture in minimal essential media (MEM) supplemented with non-essential amino acids, and containing 15% (v/v) fetal bovine serum, 5 mM L-glutamine, 1 mM sodium pyruvate, and 0.1 U/ml insulin. All cell lines were grown at 37° C. in an atmosphere of 5% CO2 in air.
Test compounds: 20 mM in DMSO and diluted to a final concentration of 200 μM in culture medium before use.
The following is the generic description of the assay method. It should be noted that although the conditions described work well with the cells listed above, the initial plating density and the MTT concentration used should be verified for each new cell line used to test compounds.
For each assay, doxorubicin is included as an inter-assay standard. This allows us to monitor the behaviour of the assay in general, and in particular, to check that the SKVLB line has maintained its resistant phenotype.
The plate layout is done in the following manner: The assays are carried out in 96-well (8 well×12 well) microtiter plates. Serial dilutions of the compound are tested along the length of the plate. A 1:3 serial dilution of compound in culture medium covers a concentration range from 100 μM to 1.7 nM. Each concentration of compound is tested in quadruplet, allowing two compounds to be tested per plate. Wells containing no cells (blank) and cells with no test compound (control) are included on each plate.
Cells are plated out in 100 μl of culture medium in the microtiter plates at a density of around 1,500-4,000 cells per well. The plates are incubated overnight to allow the cells to become adherent after which the test compound is added (100 μl of appropriate dilution per well). The cells are incubated with test compound at 37° C. for 48 h after which the compound is replaced with fresh medium. After a further 48 h incubation at 37° C., 50 μl of MTT solution (2 mg/ml) is added to each well. The plates are incubated in the dark for 4 h at 37° C. after which the medium is removed. The MTT formazan product is extracted from the cells by the addition of 200 μl DMSO followed by 50 μl of Sorensen's buffer. The plates are shaken briefly and the absorbance at 570 nm is read using a Molecular Devices UV max plate reader. Curves are fit to the MTT assay data using a four parameter logistic equation, and the data are normalized to fit a 0% to 100% survival scale.
`COC(=O)C1=CC2=C(CO1)C(=O)c1ccccc1C2=O` [BCH2830, 3-methoxy carbonyl-5,10-dioxo-5,10-dihydro-1H-naphtho-[2,3-c]-pyran] was tested, and the IC50 was 10.8 µM.

Same assay, conditions: ratio SKVLB / SKOV3
With `COCC1(COC)CC2=C(C(=O)c3ccccc3C2=O)[C@H](O[C@H]2C[C@H](NC(=O)C(F)(F)F)[C@H](O)[C@H](C)O2)O1` [BCH1697] the VLB/OV3 was 3.57. `COC(=O)[C@]1(C)CC2=C(C(=O)c3ccccc3C2=O)[C@@H](O[C@H]2C[C@H](NC(=O)C(F)(F)F)[C@H](O)[C@H](C)O2)O1` [BCH2077, (1'S,1R,3S)-1-(3'-trifluoroacetamido-2',3',6'-trideoxy-L-lyxohexopyranose)-3-methoxycarbonyl-3-methyl-3,4,5,10-tetrahydro-5,10-dioxo-1H-naphtho-[2,3-c] pyran] gave a VLB/OV3 of 11. `CC(=O)[C@@H]1CC2=C(C(=O)c3ccccc3C2=O)[C@@H](O[C@H]2C[C@H](NC(=O)C(F)(F)F)[C@H](I)[C@H](C)O2)O1` [BCH1620, (1'-S,1-R,3-S)-methyl-(1-[2',3',6'-trideoxy-3'-trifluoroacetamido-4'-iodo-L-lyxohexopyranose]-5,10-dioxo-3,4,5,10-tetrahydronaphtho-[2,3-c]-pyran-3-yl)-ketone] showed a VLB/OV3 of 51.31. `CC(=O)[C@]1(C)CC2=C(C(=O)c3ccccc3C2=O)[C@H](O[C@H]2C[C@H](NC(=O)C(F)(F)F)[C@H](O)[C@H](C)O2)O1` [BCH2090, (1'S,1S,3S)-1-(3'-trifluoroacetamido-2',3',6'-trideoxy-L-lyxohexopyranose)-3-acetyl-3-methyl-5,10-dioxo-4,5,10-trihydro-1H-naphtho-[2,3-c]-pyran] gave a VLB/OV3 of 3.29. For `CC(=O)[C@@H]1CC2=C(C(=O)c3ccccc3C2=O)[C@@H](O[C@H]2C[C@H](NC(=O)C(F)(F)F)[C@H](O)[C@H](C)O2)S1` [BCH2037, (1'S,1S,3S)-1-(3'-trifluoroacetamido-2',3',6'-trideoxy-L-lyxohexopyranose)-5,10-dioxo-3,4,5,10-tetrahydro-1H-naphtho-[2,3-c]-thiopyran], the VLB/OV3 was 0.93-6.41. Work on `CC(=O)O[C@H]1[C@@H](I)[C@H](O[C@H]2O[C@H](C(C)=O)CC3=C2C(=O)c2ccccc2C3=O)O[C@@H](C)[C@H]1OC(C)=O` [BCH1666, (1'S,1R,3S)-methyl-(1-[2',6'-dideoxy-3'-4'-diacetoxy-2'-iodo-L-lyxohexopyranose]-5,10-dioxo-3,4,5,10-tetrahydronaphtho [2,3-c]-pyran-3-yl) ketone] yielded a VLB/OV3 of 0.75. `C[C@@H]1O[C@@H](OC2OC(C#N)CC3=C2C(=O)c2ccccc2C3=O)C[C@H](NC(=O)C(F)(F)F)[C@@H]1O` (mixture of isomers) [BCH1688, (1'-S,1-R,3-S) and (1'-S,1-S,3-R)-3-cyano-1-[2',3',6'-trideoxy-3'-trifluoroacetamido-4'-hydroxy-L-lyxohexopyranose)-5,10-dioxo-3,4,5,10-tetrahydronaphtho-[2,3-C] pyran-3-yl] showed a VLB/OV3 of 4.37. `CC(=O)[C@@H]1CC2=C(C(=O)c3ccccc3C2=O)[C@@H](O[C@@H]2O[C@@H](C)[C@@H](O)[C@@H](NC(=O)C(F)(F)F)C2I)O1` (stereo partly drawn) [BCH2023, (1'S,1R,3S)-methyl-(1-[2',3',6'-trideoxy-2'-iodo-3'-trifluoroacetamido-4'-hydroxy-L-lyxohexopyranose]-5,10-dioxo-3,4,5,10-tetrahydronaphtho-[2,3-c]-pyran-3-yl) ketone] showed a VLB/OV3 of 4.39. `CO[C@@H]1O[C@H](C(=O)Nc2ccccc2)CC2=C1C(=O)c1ccccc1C2=O` (relative stereo) [BCH2042, (1,3-cis)-1-methoxy-3-N-anilinylcarbonyl-5,10-dioxo-3,4,5,10-tetrahydro-1H-naphtho-[2,3-c]-pyran] showed a VLB/OV3 of 3.51. With `CC(=O)[C@@]1(C)CC2=C(C(=O)c3ccccc3C2=O)[C@H](O[C@H]2C[C@H](NC(=O)C(F)(F)F)[C@H](O)[C@H](C)O2)O1` [BCH2082, (1'S,1S,3R)-1-(3'-trifluoroacetamido-2',3',6-trideoxy-L-lyxohexopyranose)-3-acetyl-3-methyl-5,10-dioxo-4,5,10-trihydro-1H-naphtho-[2,3-c]-pyran] the VLB/OV3 was 3. Work on `COC1OC(C(=O)Nc2ccccc2)=CC2=C1C(=O)c1ccccc1C2=O` (centres unmarked) [BCH2044, 1-methoxy-3-N-anilinylcarbonyl-5,10-dioxo-5,10-dihydro-1H-naphtho-[2,3-c]-pyran] yielded a VLB/OV3 of 3.55. In the case of `CO[C@H]1C[C@H](O[C@H]2O[C@H](C(C)=O)C[C@]34O[C@]23C(=O)c2ccccc2C4=O)O[C@@H](C)[C@H]1OS(C)(=O)=O` [BCH2141, (1'-S,1-R,3-S,4a-S,10a-S)-methyl-(1-[2',3',4',6'-tetradeoxy-3'-methoxy-4'-O-methanesulfonyl-L-lyxohexopyranose)-4a,10a-epoxy-5,10-dioxo-3,4,5,10-tetrahydronaphtho-[2,3-c]pyran-3-yl) ketone], the VLB/OV3 is reported as 1.23. `COC(=O)[C@@H](N)COC1OC(C(C)=O)CC2=C1C(=O)c1ccccc1C2=O` (mixture of isomers) [BCH1654, (1S,2'S,3R) and (1R,2'S,3S)-methyl-(1-[O-serinemethyl ester]-5,10-dioxo-3,4,5,10-tetrahydronaphtaleno [2,3-C]pyran-3-yl) ketone hydrochloride] showed a VLB/OV3 of 5.25. Work on `CC(=O)O[C@H]1[C@@H](I)[C@H](O[C@@H]2O[C@@H](C(C)=O)CC3=C2C(=O)c2ccccc2C3=O)O[C@@H](C)[C@H]1OC(C)=O` [BCH1667, (1'S,1S,3R)-methyl-(1-[2',6'-dideoxy-3',4'-diacetoxy-2'-iodo-L-lyxohexopyranose]-5,10-dioxo-3,4,5,10-tetrahydronaphtho [2,3-c]-pyran-3-yl) ketone] yielded a VLB/OV3 of 7.32. Work on `COC1OC(C(C)=O)=CC2=C1C(=O)c1ccccc1C2=O` (centres unmarked) [BCH2129, 3-Aceto-5,10-dioxo-1-methoxy-5,10-dihydro-1H-naphtho-(2,3-c)-pyran] yielded a VLB/OV3 of 2.95. In the case of `CC[C@H]1CC2=C(C(=O)c3ccccc3C2=O)[C@H](O[C@H]2C[C@H](N)[C@H](O)[C@H](C)O2)O1` [BCH2021, (1'S,1S,3S)-5,10-dioxo-3-ethyl-1-(2',3',6'-trideoxy-3'-amino-L-lyxohexopyranose)-3,4,5,10-tetrahydro-1H-naphtho-[2,3-c]-pyran], the VLB/OV3 is reported as 3.74. Work on `CC(=O)[C@@H]1CC2=C(C(=O)c3ccccc3C2=O)[C@@H](O[C@@H]2O[C@@H](C)[C@@H](O)[C@@H](O)[C@H]2I)O1` [BCH2015, (1'S,1R,3S)-methyl-(1-[2',6'-dideoxy-3',4'-dihydroxy-2'-iodo-L-lyxohexopyranose]-5,10-dioxo-3,4,5,10-tetrahydronaphtho [2,3-c]-pyran-3-yl) ketone] yielded a VLB/OV3 of 3.19. `COC(=O)C1=CC2=C(CO1)C(=O)c1ccccc1C2=O` [BCH2830, 3-methoxy carbonyl-5,10-dioxo-5,10-dihydro-1H-naphtho-[2,3-c]-pyran] gave a VLB/OV3 of 1.52. Compound `CC[C@H]1CC2=C(C(=O)c3ccccc3C2=O)[C@H](O[C@H]2C[C@H](NC(=O)C(F)(F)F)[C@H](O)[C@H](C)O2)O1` [BCH2020, (1'S,1S,3S)-5,10-dioxo-3-ethyl-1-(2',3',6'-trideoxy-3'-trifluoroacetamido-L-lyxohexopyranose)-3,4,5,10-tetrahydro-1H-naphtho-[2,3-c]-pyran] has a VLB/OV3 of 2.31. In the case of `CC(=O)CC1CC2=C(C(=O)c3cccc(O)c3C2=O)C(O[C@H]2C[C@H](NC(=O)C(F)(F)F)[C@H](O)[C@H](C)O2)O1` (mixture of isomers) [BCH2098, (1'-S,1-S,3-R) and (1'-S,1-R,3-S)-1-(6-hydroxy-1-(2',3',6'-trideoxy-3'-trifluoroacetamido,4-hydroxy-L-lyxopyranose)-5,10-dioxo-3,4,5,10 tetrahydronaphtho-[2,3-c]pyran-3-yl) propane-2-one], the VLB/OV3 is reported as 4. `CC(=O)[C@H]1CC2=C(C(=O)c3ccccc3C2=O)[C@H](O[C@@H]2O[C@@H](C)[C@@H](O)[C@@H](NC(=O)C(F)(F)F)C2I)O1` (stereo partly drawn) [BCH2022, (1'S,1S,3R)-methyl-(1-[2',3',6'-trideoxy-2'-iodo-3'-trifluoroacetamido-4'-hydroxy-L-lyxohexopyranose]-5,10-dioxo-3,4,5,10-tetrahydronaphtho-[2,3-c]-pyran-3-yl) ketone] showed a VLB/OV3 of 4.23. `COC1OC(C(=O)NCCN2CCOCC2)=CC2=C1C(=O)c1ccccc1C2=O` (centres unmarked) [BCH2170, 1-methoxy-3-[2-(N-morpholino)ethylaminocarbonyl]-5,10-dioxo-5,10-dihydro-1H-naphtho-[2,3-c]-pyran] showed a VLB/OV3 of 1.52.
